Compound in assay [1]: NC1(c2ccc(-c3nc4ccn5c(=O)[nH]nc5c4cc3-c3ccccc3)cc2)CCC1 [MK-2206] + CC(=O)Nc1cccc(-n2c(=O)n(C3CC3)c(=O)c3c(Nc4ccc(I)cc4F)n(C)c(=O)c(C)c32)c1 [Trametinib] (partner 0.02 µM)
The assay is described as follows: relative viability (nuclei count vs DMSO), 5 days (fraction); higher = more cells survive. The essentials:
(§1)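 The day after seeding in 1536-well plates, lung cancer cell lines were treated by pin tool with a single drug, or with a fixed anchor-drug dose together with five library-drug doses (not always all listed) in √10 steps. After 5 days, a combined fix-and-stain solution (final 0.05% Triton X-100, 1% formaldehyde, 1 ug/ml Hoechst) was added. Nuclei counted on 4× images gave relative viability as treated counts over vehicle counts, reported as the median of duplicate plates.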

Compound in assay [2]: CS(=O)(=O)N1CCN(Cc2cc3nc(-c4cccc5[nH]ncc45)nc(N4CCOCC4)c3s2)CC1 [Pictilisib] + Nc1ncn([C@H]2C[C@H](O)[C@@H](CO)O2)c(=O)n1 [Decitabine] (partner 2 µM)
The description is as above. The essentials: as §1

Experimental findings from the supplement of paper PMC10307832 are described below.

For NCI-H661, the relative viability came out at 0.573 in assay [1] (first compound 0.01 µM); 0.712 in assay [1] (first compound 0.03162 µM); 0.603 in assay [1] (first compound 0.3162 µM); 0.503 in assay [1] (first compound 1 µM); 0.546 in assay [2] (first compound 0.02 µM); 0.58 in assay [2] (first compound 0.06325 µM). The relative viability worked out at 0.523 in assay [2] (first compound 0.6325 µM) and 0.412 in assay [2] (first compound 2 µM).
As to CAL-12T, the relative viability in assay [1] (first compound 0.01 µM) worked out at 0.406; in assay [1] (first compound 0.03162 µM) it was 0.307; in assay [1] (first compound 0.3162 µM) it was 0.307; in assay [1] (first compound 1 µM), 0.313.
As to HARA, the relative viability is 0.63 in assay [1] (first compound 0.01 µM); 0.553 in assay [1] (first compound 0.03162 µM); 0.677 in assay [1] (first compound 0.3162 µM); 0.788 in assay [1] (first compound 1 µM); 0.605 in assay [2] (first compound 0.02 µM); 0.64 in assay [2] (first compound 0.06325 µM). For the same cell line, the relative viability worked out at 0.453 in assay [2] (first compound 0.6325 µM) and 0.307 in assay [2] (first compound 2 µM).
Turning to NCI-H596, the relative viability in assay [1] (first compound 0.01 µM) was found to be 0.728; in assay [1] (first compound 0.03162 µM), 0.756; in assay [1] (first compound 0.3162 µM), 0.713; in assay [1] (first compound 1 µM) it was 0.603; in assay [2] (first compound 0.02 µM), 0.963; in assay [2] (first compound 0.06325 µM), 1.02. Further, the figures for the relative viability in assay [2] (first compound 0.6325 µM) and in assay [2] (first compound 2 µM) were 0.756 and 0.403, respectively.
On to LU99A, for which the relative viability in assay [1] (first compound 0.01 µM) worked out at 0.524; in assay [1] (first compound 0.03162 µM) it was 0.537; in assay [1] (first compound 0.3162 µM), 0.473; in assay [1] (first compound 1 µM), 0.553; in assay [2] (first compound 0.02 µM), 0.969; in assay [2] (first compound 0.06325 µM) it was 0.919. Further, the relative viability in assay [2] (first compound 0.6325 µM) was 0.901; in assay [2] (first compound 2 µM), 0.441.
LC-2-ad: the relative viability in assay [1] (first compound 0.01 µM) turned out to be 0.924; in assay [1] (first compound 0.03162 µM) it was 0.886; in assay [1] (first compound 0.3162 µM), 0.933; in assay [1] (first compound 1 µM) it was 0.927; in assay [2] (first compound 0.02 µM), 0.758; in assay [2] (first compound 0.06325 µM), 0.836. Also, the relative viability was found to be 0.661 in assay [2] (first compound 0.6325 µM) and 0.637 in assay [2] (first compound 2 µM).
Regarding NCI-H1650, the relative viability is 0.54 in assay [1] (first compound 0.01 µM); 0.649 in assay [1] (first compound 0.03162 µM); 0.612 in assay [1] (first compound 0.3162 µM); 0.643 in assay [1] (first compound 1 µM); 0.41 in assay [2] (first compound 0.02 µM); 0.39 in assay [2] (first compound 0.06325 µM). In addition, the relative viability in assay [2] (first compound 0.6325 µM) was 0.438; in assay [2] (first compound 2 µM), 0.432.
As to NCI-H1915, the relative viability came out at 0.3 in assay [1] (first compound 0.01 µM); 0.315 in assay [1] (first compound 0.03162 µM); 0.282 in assay [1] (first compound 0.3162 µM); 0.293 in assay [1] (first compound 1 µM); 0.259 in assay [2] (first compound 0.02 µM); 0.251 in assay [2] (first compound 0.06325 µM). For the same cell line, the relative viability stood at 0.259 in assay [2] (first compound 0.6325 µM) and 0.283 in assay [2] (first compound 2 µM).
For ABC-1, the relative viability was 1.16 in assay [2] (first compound 0.02 µM), 1.19 in assay [2] (first compound 0.06325 µM), 1.07 in assay [2] (first compound 0.6325 µM) and 0.703 in assay [2] (first compound 2 µM).
Consider HCC-44, for which the relative viability in assay [1] (first compound 0.01 µM) came to 0.927; in assay [1] (first compound 0.03162 µM) it was 1.02; in assay [1] (first compound 0.3162 µM), 1.11; in assay [1] (first compound 1 µM), 1.04; in assay [2] (first compound 0.02 µM), 0.92; in assay [2] (first compound 0.06325 µM), 0.958. For the same cell line, the relative viability in assay [2] (first compound 0.6325 µM) turned out to be 0.926; in assay [2] (first compound 2 µM), 0.94.
Regarding HCC-78, the relative viability was 0.746 in assay [1] (first compound 0.01 µM); 0.832 in assay [1] (first compound 0.03162 µM); 0.786 in assay [1] (first compound 0.3162 µM); 0.907 in assay [1] (first compound 1 µM); 0.604 in assay [2] (first compound 0.02 µM); 0.607 in assay [2] (first compound 0.06325 µM). The figures for the relative viability in assay [2] (first compound 0.6325 µM) and in assay [2] (first compound 2 µM) were 0.6 and 0.402, respectively.
With LXF-289, the relative viability is 0.65 in assay [1] (first compound 0.01 µM); 0.699 in assay [1] (first compound 0.03162 µM); 0.68 in assay [1] (first compound 0.3162 µM); 0.663 in assay [1] (first compound 1 µM); 0.361 in assay [2] (first compound 0.02 µM); 0.4 in assay [2] (first compound 0.06325 µM). Moreover, the relative viability in assay [2] (first compound 0.6325 µM) worked out at 0.337; in assay [2] (first compound 2 µM), 0.443.
As for 201T, the relative viability in assay [1] (first compound 0.01 µM) is 0.688; in assay [1] (first compound 0.03162 µM), 0.753; in assay [1] (first compound 0.3162 µM), 0.743; in assay [1] (first compound 1 µM), 0.724; in assay [2] (first compound 0.02 µM), 0.869; in assay [2] (first compound 0.06325 µM) it was 0.83. The relative viability was found to be 0.675 in assay [2] (first compound 0.6325 µM) and 0.843 in assay [2] (first compound 2 µM).
Take NCI-H1734: the relative viability in assay [1] (first compound 0.01 µM) was determined as 0.633; in assay [1] (first compound 0.03162 µM) it was 0.646; in assay [1] (first compound 0.3162 µM), 0.535; in assay [1] (first compound 1 µM) it was 0.478; in assay [2] (first compound 0.02 µM) it was 0.472; in assay [2] (first compound 0.06325 µM), 0.481. The relative viability in assay [2] (first compound 0.6325 µM) was determined as 0.418; in assay [2] (first compound 2 µM) it was 0.338.
As for NCI-H2126, the relative viability was 0.559 in assay [1] (first compound 0.01 µM); 0.543 in assay [1] (first compound 0.03162 µM); 0.515 in assay [1] (first compound 0.3162 µM); 0.455 in assay [1] (first compound 1 µM); 0.559 in assay [2] (first compound 0.02 µM); 0.57 in assay [2] (first compound 0.06325 µM). The values for the relative viability in assay [2] (first compound 0.6325 µM) and in assay [2] (first compound 2 µM) were 0.473 and 0.494, respectively.
On to LOU-NH91, for which the relative viability in assay [1] (first compound 0.01 µM) was found to be 0.793; in assay [1] (first compound 0.03162 µM), 0.817; in assay [1] (first compound 0.3162 µM), 0.77; in assay [1] (first compound 1 µM), 0.686; in assay [2] (first compound 0.02 µM) it was 0.827; in assay [2] (first compound 0.06325 µM), 0.829. In addition, the relative viability in assay [2] (first compound 0.6325 µM) worked out at 0.771; in assay [2] (first compound 2 µM) it was 0.7.
NCI-H1792: the relative viability in assay [1] (first compound 0.01 µM) stood at 0.363; in assay [1] (first compound 0.03162 µM), 0.395; in assay [1] (first compound 0.3162 µM), 0.365; in assay [1] (first compound 1 µM), 0.296; in assay [2] (first compound 0.02 µM) it was 0.509; in assay [2] (first compound 0.06325 µM) it was 0.592. Further, the relative viability was 0.491 in assay [2] (first compound 0.6325 µM) and 0.22 in assay [2] (first compound 2 µM).
As to NCI-H1651, the relative viability in assay [1] (first compound 0.01 µM) is 0.797; in assay [1] (first compound 0.03162 µM) it was 0.849; in assay [1] (first compound 0.3162 µM) it was 0.853; in assay [1] (first compound 1 µM) it was 0.819; in assay [2] (first compound 0.02 µM) it was 0.473; in assay [2] (first compound 0.06325 µM), 0.603. For the same cell line, the results for the relative viability in assay [2] (first compound 0.6325 µM) and in assay [2] (first compound 2 µM) were 0.505 and 0.413, respectively.
For the cell line A549, the relative viability was determined as 0.256 in assay [2] (first compound 0.02 µM), 0.289 in assay [2] (first compound 0.06325 µM), 0.259 in assay [2] (first compound 0.6325 µM) and 0.22 in assay [2] (first compound 2 µM).
